Laboratory results: US12152020B2, “Pesticidally active azole-amide compounds” (SYNGENTA PARTICIPATIONS AG, priority 2018, dated 2024)

Columns and labels:
Assay type in all cases: in vivo
[1] = tested on: Chilo suppressalis (Striped Rice Stemborer); assay: Example B4: Chilo suppressalis, artificial diet, L2 larvae; conditions: 144 h, application rate of 200 ppm, 6 days after infestation, in comparison to untreated samples, read-out: control in at least one of the categories (mortality, anti-feedant effect, or growth inhibition)
Summary of the method: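 Artificial diet was treated with aqueous dilutions made from 10'000 ppm DMSO stocks, dried, then infested with L2 larvae at 6–8 per well. Mortality, antifeedant effect and growth inhibition were assessed against untreated samples 6 days after infestation.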

[2] = tested on: Plutella xylostella (Diamond Back Moth); assay: Example B5: Plutella xylostella, artificial diet in 24-well plates, eggs; conditions: 192 h, application rate of 200 ppm, 8 days after infestation, in comparison to untreated samples, read-out: effect in at least one of the two categories (mortality or growth inhibition)
Summary of the method: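 Artificial diet in 24-well plates treated with aqueous test solutions made from 10′000 ppm DMSO stocks, dried, then infested with Plutella eggs. Mortality and growth inhibition scored against untreated samples 8 days after infestation.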

[3] = tested on: Myzus persicae (Green Peach Aphid); assay: Example B8: Myzus persicae intrinsic activity, sucrose solution under Parafilm, 24-well; conditions: 120 h, test rate of 12 ppm, 5 days after infestation
Summary of the method: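 Compounds, diluted from 10′000 ppm DMSO stocks, were mixed with sucrose solution in wells sealed with stretched Parafilm. Aphid-infested pea seedlings were placed on the Parafilm, and the covered plate was turned upside down. Mortality was scored 5 days after infestation.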

[4] = tested on: Spodoptera littoralis (Egyptian Cotton Leaf Worm); assay: Example B9: Spodoptera littoralis, cotton leaf discs sprayed, L1 larvae; conditions: foliar, 72 h, application rate of 200 ppm, five L1 larvae, 3 days after infestation, in comparison to untreated samples, read-out: control in at least one of the categories (mortality, anti-feedant effect, or growth inhibition)
Summary of the method: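 Cotton leaf discs on agar sprayed with aqueous solutions made from 10′000 ppm DMSO stocks, dried, then infested with five L1 larvae. Mortality, anti-feeding and growth inhibition assessed against untreated samples 3 days after infestation; control counted when any category exceeded untreated.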

[5] = tested on: Tetranychus urticae (Two-Spotted Spider Mite); assay: Example B11: Tetranychus urticae feeding/contact activity, bean leaf discs; conditions: foliar, 192 h
Protocol: Example B11: Tetranychus urticae (Two-Spotted Spider Mite): Feeding/Contact Activity
Bean leaf discs on agar in 24-well microtiter plates were sprayed with aqueous test solutions prepared from 10′000 ppm DMSO stock solutions. After drying the leaf discs were infested with a mite population of mixed ages. The samples were assessed for mortality on mixed population (mobile stages) 8 days after infestation.

[6] = tested on: Diabrotica balteata (Corn Root Worm); assay: Example B1: Diabrotica balteata, maize sprouts sprayed, L2 larvae; conditions: 96 h, application rate of 200 ppm, 4 days after infestation, in comparison to untreated samples, read-out: effect in at least one of the two categories (mortality or growth inhibition)
Summary of the method: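 Maize sprouts on agar sprayed with aqueous test solutions made from 10′000 ppm DMSO stocks, dried, then infested with 6–10 L2 larvae per well. Mortality and growth inhibition scored against untreated samples 4 days after infestation.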

[7] = tested on: Spodoptera littoralis (Egyptian Cotton Leaf Worm); assay: Example B10: Spodoptera littoralis, uptake by lettuce roots from agar, eggs; conditions: 144 h, test rate of 12.5 ppm, lettuce root uptake, 6 days after infestation, in comparison to untreated samples, read-out: effect in at least one of the three categories (mortality, anti-feeding, or growth inhibition)
Text: Example B10: Spodoptera littoralis (Egyptian Cotton Leaf Worm)
Test compounds were applied by pipette from 10′000 ppm DMSO stock solutions into 24-well plates and mixed with agar. Lettuce seeds were placed onto the agar and the multi well plate was closed by another plate which contained also agar. After 7 days the compound was absorbed by the roots and the lettuce grew into the lid plate. The lettuce leaves were then cut off into the lid plate. Spodoptera eggs were pipetted through a plastic stencil onto a humid gel blotting paper and the lid plate was closed with it. The samples were assessed for mortality, anti-feedant effect and growth inhibition in comparison to untreated samples 6 days after infestation.
The following compounds gave an effect of at least 80% in at least one of the three categories (mortality, anti-feeding, or growth inhibition) at a test rate of 12.5 ppm: • P3, P15, P32

[8] = tested on: Myzus persicae (Green Peach Aphid); assay: Example B13: Myzus persicae, sucrose solution under Parafilm, 96-well; conditions: 120 h, application rate of 50 ppm, 5 days after infestation
Summary of the method: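 Compounds from 10′000 ppm DMSO stocks mixed into sucrose solution, with aphids feeding through a Parafilm membrane in inverted plates. Mortality assessed 5 days after infestation.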

[9] = tested on: Plutella xylostella (Diamondback Moth); assay: Example B14: Plutella xylostella, artificial diet in 96-well plates, eggs; conditions: 216 h, application rate of 500 ppm, 9 days after infestation
Summary of the method: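 Artificial diet in microtiter wells treated with aqueous dilutions of DMSO stocks, dried, then infested with ~30 eggs per well; hatching L1 larvae feed on treated diet. Mortality scored 9 days after infestation.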

[10] = tested on: Euschistus heros (Neotropical Brown Stink Bug); assay: Example B2: Euschistus heros, soybean leaves sprayed, N2 nymphs; conditions: 120 h, application rate of 200 ppm, 5 days after infestation, in comparison to untreated samples, read-out: effect in at least one of the two categories (mortality or growth inhibition)
Protocol: Example B2: Euschistus heros (Neotropical Brown Stink Bug)
Soybean leaves on agar in 24-well microtiter plates were sprayed with aqueous test solutions prepared from 10′000 ppm DMSO stock solutions. After drying the leaves were infested with N2 nymphs. The samples were assessed for mortality and growth inhibition in comparison to untreated samples 5 days after infestation.
The following compounds gave an effect of at least 80% in at least one of the two categories (mortality or growth inhibition) at an application rate of 200 ppm: • P1, P2, P3, P7, P11, P12, P16, P17, P18, P22, P25, P29, P32, P33, P37, P38

[11] = tested on: Myzus persicae (Green Peach Aphid); assay: Example B6: Myzus persicae feeding/contact activity, sunflower leaf discs; conditions: foliar, 144 h, application rate of 200 ppm, aphid population of mixed ages, 6 days after infestation
Protocol: Example B6: Myzus persicae (Green Peach Aphid): Feeding/Contact Activity
(§1) Sunflower leaf discs were placed onto agar in a 24-well microtiter plate and sprayed with aqueous test solutions prepared from 10′000 ppm DMSO stock solutions. After drying, the leaf discs were infested with an aphid population of mixed ages. The samples were assessed for mortality 6 days after infestation.

[12] = tested on: Myzus persicae (Green Peach Aphid); assay: Example B7: Myzus persicae systemic activity, pea seedling roots in test solution; conditions: 144 h, test rate of 24 ppm, 6 days after placing seedlings into test solutions
Protocol: Example B7: Myzus persicae (Green Peach Aphid): Systemic Activity
Roots of pea seedlings infested with an aphid population of mixed ages were placed directly into aqueous test solutions prepared from 10′000 DMSO stock solutions. The samples were assessed for mortality 6 days after placing seedlings into test solutions.

[13] = tested on: Thrips tabaci (Onion thrips); assay: Example B12: Thrips tabaci feeding/contact activity, sunflower leaf discs; conditions: foliar, 144 h, application rate of 200 ppm, thrips population of mixed ages, 6 days after infestation
Protocol: Example B12: Thrips tabaci (Onion thrips): Feeding/Contact Activity
as §1, with “on” for “onto”, “in” for “in a”, “plates” for “plate”, “drying” for “drying,”, “a thrips” for “an aphid”

COCCOc1nc(C(C)NC(=O)c2cc(C(F)(F)F)cc(C(F)(F)F)c2)n(-c2ncccn2)n1 (stereo not shown) [Compound P36, N-[1-[5-(2-methoxyethoxy)-2-pyrimidin-2-yl-1,2,4-triazol-3-yl]ethyl]-3,5-bis(trifluoromethyl) benzamide]
≥ 80%: percent control (mortality, anti-feedant effect or growth inhibition) at 200 ppm [1] | percent effect (mortality or growth inhibition) at 200 ppm [2] | mortality at 12 ppm [3] | percent control (mortality, anti-feedant effect or growth inhibition) at 200 ppm [4] | mortality at 200 ppm [5]

CC(c1nc(Cl)nn1-c1ncccn1)N(C)C(=O)c1cc(C(F)(F)F)cc(C(F)(F)F)c1 (stereo not shown) [Compound P15, N-[1-(5-chloro-2-pyrimidin-2-yl-1,2,4-triazol-3-yl)ethyl]-N-methyl-3,5-bis(trifluoromethyl)benzamide]
≥ 80%: percent effect (mortality or growth inhibition) at 200 ppm [6] | percent effect (mortality or growth inhibition) at 200 ppm [2] | percent control (mortality, anti-feedant effect or growth inhibition) at 200 ppm [4] | percent effect (mortality, anti-feeding or growth inhibition) at 12.5 ppm [7] | mortality at 50 ppm [8] | mortality at 500 ppm [9]

CC(NC(=O)c1cc(Cl)cc(OC(F)(F)F)c1)c1nc(Br)nn1-c1ncccn1 (stereo not shown) [Compound P32, N-[1-(5-bromo-2-pyrimidin-2-yl-1,2,4-triazol-3-yl)ethyl]-3-chloro-5-(trifluoromethoxy)ben zamide]
≥ 80%: percent effect (mortality or growth inhibition) at 200 ppm [6] | percent effect (mortality or growth inhibition) at 200 ppm [10] | percent control (mortality, anti-feedant effect or growth inhibition) at 200 ppm [1] | percent effect (mortality or growth inhibition) at 200 ppm [2] | mortality at 12 ppm [3] | percent control (mortality, anti-feedant effect or growth inhibition) at 200 ppm [4] | percent effect (mortality, anti-feeding or growth inhibition) at 12.5 ppm [7] | mortality at 50 ppm [8] | mortality at 500 ppm [9]

CC(c1nc(Br)nn1-c1ncccn1)N(C)C(=O)c1cc(C(F)(F)F)cc(C(F)(F)F)c1 (stereo not shown) [Compound P3, N-[1-(5-bromo-2-pyrimidin-2-yl-1,2,4-triazol-3-yl)ethyl]-N-methyl-3,5-bis(trifluoromethyl)benzamide]
≥ 80%: percent effect (mortality or growth inhibition) at 200 ppm [6] | percent effect (mortality or growth inhibition) at 200 ppm [10] | percent control (mortality, anti-feedant effect or growth inhibition) at 200 ppm [1] | percent effect (mortality or growth inhibition) at 200 ppm [2] | mortality at 200 ppm [11] | mortality at 12 ppm [3] | percent control (mortality, anti-feedant effect or growth inhibition) at 200 ppm [4] | percent effect (mortality, anti-feeding or growth inhibition) at 12.5 ppm [7] | mortality at 50 ppm [8] | mortality at 500 ppm [9]

CC(=O)Nc1nc(C(C)N(C)C(=O)c2cc(C(F)(F)F)cc(C(F)(F)F)c2)n(-c2ncccn2)n1 (stereo not shown) [Compound P17, N-[1-(5-acetamido-2-pyrimidin-2-yl-1,2,4-triazol-3-yl)ethyl]-N-methyl-3,5-bis(trifluoromethyl) benzamide]
≥ 80%: percent effect (mortality or growth inhibition) at 200 ppm [6] | percent effect (mortality or growth inhibition) at 200 ppm [10] | percent effect (mortality or growth inhibition) at 200 ppm [2] | mortality at 200 ppm [11] | mortality at 24 ppm [12] | mortality at 12 ppm [3] | percent control (mortality, anti-feedant effect or growth inhibition) at 200 ppm [4] | mortality at 200 ppm [13] | mortality at 50 ppm [8] | mortality at 500 ppm [9]
